# Marks after values point to notes of the source that are not given here.
# Tests used:
# Type in all cases: physicochemical
# [1] = XRPD physical form after storage; conditions: days 7, 9 and 29 after removal from drying oven, ambient conditions
# Experimental: XRPD diffractograms were collected on a PANalytical Empyrean diffractometer using Cu Kα radiation (45 kV, 40 mA) in transmission geometry. A 0.5° sat, 4 mm mask and 0.04 rad Soller slits with a focusing mirror were used on the incident beam. A PIXcel^3D detector, placed on the diffracted beam, was fitted with a receiving slit and 0.04 rad Soller slits. The software used for data collection was X'Pert Data Collector using X'Pert Operator Interface. The data were analysed and presented using Diffrac Plus EVA or HighScore Plus.
# After removal from the vacuum oven (day 0), Example 3 was reanalysed by XRPD in reflection mode on days 7, 9 and 29.
# (§1) In a separate study, samples of Form 3 (Example 5.3; batch ref. 491-PAL-18) having an initial water content by KF of 2.3% w/w were tested for water content at various time points after storage double bagged in a HDPE bottle under various conditions as shown in Table 17.
# [2] = GVS sorption-desorption isotherms; conditions: for water content at starting conditions (GVS): 40% RH and 25° C.; for additional water taken up (GVS): RH increased to 90%; for crystalline form by XRPD after GVS: after sorption/desorption cycle(s); for total water content (GVS): at 90% RH; for water taken up (GVS): between 0% and 60% RH (Form 1: at 60% RH)
# Experimental: Sorption isotherms were obtained using a SMS DVS Intrinsic moisture sorption analyser, controlled by DVS Intrinsic Control software. The sample temperature was maintained at 25° C. by the instrument controls. The humidity was controlled by mixing streams of dry and wet nitrogen, with a total flow rate of 200 ml/min. The relative humidity was measured by a calibrated Rotronic probe (dynamic range of 1.0-100% RH), located near the sample. The weight change, (mass relaxation) of the sample as a function of % RH was constantly monitored by a microbalance (accuracy±0.005 mg). Typically, 5-30 mg of sample was placed in a tared mesh stainless steel basket under ambient conditions. The sample was loaded and unloaded at 40% RH and 25° C. (typical room conditions). A moisture sorption isotherm was performed as outlined below (2 scans per complete cycle). The standard isotherm was performed at 25° C. at 10% RH intervals over a 0-90% RH range. Typically, a double cycle (4 scans) was carried out. Data analysis was carried out within Microsoft Excel using the DVS Analysis Suite. Samples of Example 1 (Form 1) and Example 3 (Form 3) were analysed for their sorption-desorption isotherms by GVS. […] The sample contained approximately 8% w/w water at the starting conditions of 40% RH and 25° C. […] Therefore, the second sorption profile seen in FIG. 18A is that of Form 3. […] The sample contained approximately 3-4% w/w water at the starting conditions of 40% RH and 25° C. […] A significant uptake of moisture occurred in the first sorption cycle between 60 and 70% RH equivalent to approximately 5% w/w.
# [3] = Compression testing; conditions: 20 kg, 50 kg and 100 kg for 2 minutes each
# Experimental: 15 mg samples of Example 3 (Form 3) were compressed into 3 mm recess discs under 20 kg, 50 kg and 100 kg of pressure for 2 minutes each.
# [4] = TGA mass loss (water content) after exposure to ambient conditions
# Experimental: TGA data were collected on a TA Instruments Discovery TGA, equipped with a 25-position auto-sampler. Typically, 5-10 mg of each sample was loaded onto a pre-tared aluminium DSC pan and heated at 10° C./min from ambient temperature to 350° C. A nitrogen purge at 25 ml/min was maintained over the sample. The instrument control software was TRIOS and the data were analysed using TRIOS or Universal Analysis.
# Example 3 was also analysed by TGA at days 1, 3, 7, 9, 15 and 20 after removal from the vacuum oven and exposure to ambient conditions, as described in Table 6.
# [5] = Kinetic solubility in biorelevant media; conditions: for Kinetic solubility, Mean conc: 37° C.
# Experimental: A small-scale kinetic solubility study was carried out at a nominal concentration of 200-400 mg/ml to ensure solid material remained at the end of the experiment for XRPD analysis. Approximately 100 mg of sample—Form 1 (batch ref L17-0004-S-8002) or Form 3 (Example 5.4.1 (batch ref. 491PAL22; A-19-0132)) was weighed into a 1 ml vial and 250 μl of 0.1 M HCl was added to the vial for the 15 and 30 minute timepoints and 500 μl of a 1:1 mixture of 0.1 M HCl and FaSSIF was added to the vial for the 60 and 180 minute timepoints, The vial was agitated and maintained at 37° C.
# The study was carried out in duplicate. Each sample was centrifuged to remove suspended solids. An aliquot of the supernatant was transferred to a second vial for further centrifugation and then transferred to an LC vial, diluted with an appropriate solvent and analysed by HPLC for parent compound. The residual solids were analysed by XRPD.
# [6] = KF water content of stability samples; conditions: for KF water content: Duma bottles without desiccant
# Experimental: The water content of each sample was measured on a Metrohm 874 Oven Sample Processor at 150° C. with 851 Titrano Coulometer using Hydranal Coulomat AG oven reagent and nitrogen purge. Weighed solid samples were introduced into a sealed sample vial. Approximately 10 mg of sample was used per titration and duplicate determinations were made. […] Data collection and analysis were performed using Tiamo software.
# The water content of samples of Form 1 (batch ref. LS19-0004-3-8002), Form 3 prepared by minimally-agitated drying ([…]; batch ref. 491-PAL-18) and Form 3 prepared by continuously-agitated filter drying (Example 5B trial 5; batch ref. 00173-005) was analysed by KF at the start of the stability study (initial) and after 2, 4 and 8 weeks storage in 60 ml Duma® bottles fitted with 45 mm Duma® caps (without desiccant) at 25° C./60% RH—see Table 16;
# as §1
# [7] = Aqueous manipulation (slurry in water, XRPD)
# Experimental: Example 3—Form 3 (100 mg) was placed in a 4 ml vial, to which H2O (200 μl, 2 volumes) was added. The sample was capped and left at ambient temperature overnight. A spatula fill of the slurry was placed in a well and analysed by XRPD in transmission mode. The XRPD analysis was repeated every 5 minutes for 36 minutes on the same sample in the well. An XRPD was recorded 4 hours later too.
# [8] = 15 mins (simulated gastric), 0.1 M HCl, Form 3 = Example 5.4.1
# [9] = 30 mins (simulated gastric), 0.1 M HCl
# [10] = 60 mins (simulated intestinal), 1:1 0.1 M HCl and FaSSIF
# [11] = 180 mins (simulated intestinal), 1:1 0.1 M HCl and FaSSIF
structure (smiles),measurement,setting,value
C[S+]([O-])CCCCN=C=S.OC[C@H]1O[C@@H]2O[C@H]3[C@H](O)[C@@H](O)[C@@H](O[C@H]4[C@H](O)[C@@H](O)[C@@H](O[C@H]5[C@H](O)[C@@H](O)[C@@H](O[C@H]6[C@H](O)[C@@H](O)[C@@H](O[C@H]7[C@H](O)[C@@H](O)[C@@H](O[C@H]1[C@H](O)[C@H]2O)O[C@@H]7CO)O[C@@H]6CO)O[C@@H]5CO)O[C@@H]4CO)O[C@@H]3CO [Form 3],solid state form by XRPD (reflection mode),[1],still existed as Form 3
same,water content at starting conditions (GVS),[2],3-4 % w/w
same,additional water taken up (GVS),[2]; 25° C.,7-8 % w/w
same,crystalline form by XRPD after GVS,[2],remains as Form 3
same,total water content (GVS),[2]; 25° C.,11.1 % w/w
same,water taken up (GVS),[2],about 4 % w/w
same,uptake of moisture in the first sorption cycle (GVS),[2]; between 60 and 70% RH,approximately 5 % w/w
same,decomposition by 1H-NMR after compression,[3],No decomposition
same,form by XRPD after compression,[3],still existed as Form 3
same,TGA mass loss,"[4]; 1 day exposed to ambient conditions, average of two readings",4.0* % wt
same,TGA mass loss,[4]; 3 days exposed to ambient conditions,5.1 % wt
same,TGA mass loss,[4]; 7 days exposed to ambient conditions,5.7 % wt
same,TGA mass loss,[4]; 9 days exposed to ambient conditions,6.0 % wt
same,TGA mass loss,[4]; 15 days exposed to ambient conditions,6.4 % wt
same,TGA mass loss,[4]; 20 days exposed to ambient conditions,6.2 % wt
same,stabilised water content,[4]; after gradual absorption of atmospheric moisture,approximately 6 % wt
same,water molecules per 1:1 sulforaphane:α-cyclodextrin complex,[4]; at stabilised water content,3.5 to 4
same,XRPD analysis of residual solids,[5]; 15 mins (simulated gastric),Form 1
same,"Kinetic solubility, Mean conc",[5]; [8],approximately 300 mg/ml
same,"Kinetic solubility, Mean conc","[5]; 15 mins (simulated gastric), 0.1 M HCl, Form 3 = Example 5.4.1, listed as 3",298 mg/mL
same,XRPD analysis of residual solids,[5]; 30 mins (simulated gastric),Form 1
same,"Kinetic solubility, Mean conc",[5]; [9],298 mg/mL
same,"Kinetic solubility, Mean conc",[5]; [10],approximately 180 mg/ml
same,"Kinetic solubility, Mean conc","[5]; 60 mins (simulated intestinal), 1:1 0.1 M HCl and FaSSIF, listed as 3",171 mg/mL
same,"Kinetic solubility, Mean conc",[5]; [11],approximately 180 mg/ml
same,"Kinetic solubility, Mean conc","[5]; 180 mins (simulated intestinal), 1:1 0.1 M HCl and FaSSIF, listed as 3",157 mg/mL
same,water content on extended exposure to high humidity,[6]; up to 6 months,does not increase significantly above about 5-6% w/w
same,form by XRPD when slurried in water,"[7]; 2 volumes H2O, ambient temperature overnight, XRPD after 14 and 36 mins",converted to Form 2
same,form by XRPD after slurry sample left at ambient conditions,[7]; 4 further hours at ambient conditions,converted from Form 2 to Form 1
C[S+]([O-])CCCCN=C=S.OCC1OC2OC3C(CO)OC(OC4C(CO)OC(OC5C(CO)OC(OC6C(CO)OC(OC7C(CO)OC(OC1C(O)C2O)C(O)C7O)C(O)C6O)C(O)C5O)C(O)C4O)C(O)C3O (centres unmarked) [Form 1],hysteresis (GVS),[2]; 25° C.,Significant hysteresis existed between 70% and 30% RH
same,water content at starting conditions (GVS),[2],approximately 8 % w/w
same,additional water taken up (GVS),[2]; 25° C.,4-5 % w/w
same,crystalline form by XRPD after GVS,[2],had converted to Form 3
same,total water content (GVS),[2]; 25° C.,12.9 % w/w
same,water taken up (GVS),[2],8-9 % w/w
same,XRPD analysis of residual solids,[5]; 15 mins (simulated gastric),Form 1
same,"Kinetic solubility, Mean conc",[5]; [8],approximately 300 mg/ml
same,"Kinetic solubility, Mean conc","[5]; 15 mins (simulated gastric), 0.1 M HCl, Form 3 = Example 5.4.1, listed as 1",319 mg/mL
same,XRPD analysis of residual solids,[5]; 30 mins (simulated gastric),Form 1
same,"Kinetic solubility, Mean conc",[5]; [9],318 mg/mL
same,XRPD analysis of residual solids,[5]; 60 mins (simulated intestinal),Form 1
same,"Kinetic solubility, Mean conc",[5]; [10],approximately 180 mg/ml
same,"Kinetic solubility, Mean conc","[5]; 60 mins (simulated intestinal), 1:1 0.1 M HCl and FaSSIF, listed as 1",191 mg/mL
same,XRPD analysis of residual solids,[5]; 180 mins (simulated intestinal),Form 1
same,"Kinetic solubility, Mean conc",[5]; [11],approximately 180 mg/ml
same,"Kinetic solubility, Mean conc","[5]; 180 mins (simulated intestinal), 1:1 0.1 M HCl and FaSSIF, listed as 1",180 mg/mL
same,KF water content,"[6]; 2 weeks, 25° C./60% RH",8.4 % w/w
same,KF water content,"[6]; 4 weeks, 25° C./60% RH",6.5 % w/w
same,KF water content,"[6]; 8 weeks, 25° C./60% RH",11.1 % w/w
same,KF water content,"[6]; Initial, 25° C./60% RH study",8.6 % w/w

# — patent US12590057B2, “Crystalline complexes” (Theracryf PLC, priority 2020, dated 2026)
